# In US9125913B2, “Bcl-2-selective apoptosis-inducing agents for the treatment of cancer and immune diseases” (AbbVie Inc., priority 2008, dated 2015):
# Tested on: GST-Bcl-2
# Assay: TR-FRET binding assay, Bcl-2
# Conditions: TR-FRET Ki values
# Summary of the method: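 Ki values come from Wang's competitive-binding equation applied to TR-FRET signal (excitation 340/35 nm; emission 520/525 nm F-Bak peptide, 495/510 nm Tb antibody). Protein, probe and antibody incubated with compound 3 h at room temperature; dilution series began at 50 μM as 2× stock in 10% DMSO.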
row,Structure (SMILES),Binding selectivity ratio (Bcl-XL Ki/Bcl-2 Ki)
1,"CC1(C)CCC(CN2CCN(c3ccc(C(=O)NS(=O)(=O)c4ccc(NCCCN5CCS(=O)(=O)CC5)c([N+](=O)[O-])c4)c(Oc4cccc5[nH]ccc45)c3)CC2)=C(c2ccc(Cl)cc2)C1 [EXAMPLE 295, 4-(4-{[2-(4-chlorophenyl)-4,4-dimethylcyclohex-1-en-1-yl]methyl}piperazin-1-yl)-N-[(4-{[3-(1,1-dioxidothiomorpholin-4-yl)propyl]amino}-3-nitrophenyl)sulfonyl]-2-(1H-indol-4-yloxy)benzamide]",599.4
2,"CC1(C)CCC(CN2CCN(c3ccc(C(=O)NS(=O)(=O)c4ccc(CCC5CCOCC5)c([N+](=O)[O-])c4)c(Oc4ccc5[nH]ccc5c4)c3)CC2)=C(c2ccc(Cl)cc2)C1 [EXAMPLE 296, 4-(4-{[2-(4-chlorophenyl)-4,4-dimethylcyclohex-1-en-1-yl]methyl}piperazin-1-yl)-2-(1H-indol-5-yloxy)-N-{[3-nitro-4-(2-tetrahydro-2H-pyran-4-ylethyl)phenyl]sulfonyl}benzamide]",>1014.4
3,"CC1(C)CCC(CN2CCN(c3ccc(C(=O)NS(=O)(=O)c4ccc(OCC5COCCO5)c([N+](=O)[O-])c4)c(Oc4ccc5[nH]ccc5c4)c3)CC2)=C(c2ccc(Cl)cc2)C1 (stereo not shown) [EXAMPLE 297, 4-(4-{[2-(4-chlorophenyl)-4,4-dimethylcyclohex-1-en-1-yl]methyl}piperazin-1-yl)-N-{[4-(1,4-dioxan-2-ylmethoxy)-3-nitrophenyl]sulfonyl}-2-(1H-indol-5-yloxy)benzamide]",2209.5
4,"COCCOCCNc1ccc(S(=O)(=O)NC(=O)c2ccc(N3CCN(CC4=C(c5ccc(Cl)cc5)CC(C)(C)CC4)CC3)cc2Oc2ccc3[nH]ccc3c2)cc1[N+](=O)[O-] [EXAMPLE 298, 4-(4-{[2-(4-chlorophenyl)-4,4-dimethylcyclohex-1-en-1-yl]methyl}piperazin-1-yl)-2-(1H-indol-5-yloxy)-N-[(4-{[2-(2-methoxyethoxy)ethyl]amino}-3-nitrophenyl)sulfonyl]benzamide]",1415.7
5,"CC1(C)CCC(CN2CCN(c3ccc(C(=O)NS(=O)(=O)c4ccc(NC5CCS(=O)(=O)C5)c([N+](=O)[O-])c4)c(Oc4cccc5[nH]ccc45)c3)CC2)=C(c2ccc(Cl)cc2)C1 (stereo not shown) [EXAMPLE 299, 4-(4-{[2-(4-chlorophenyl)-4,4-dimethylcyclohex-1-en-1-yl]methyl}piperazin-1-yl)-N-({4-[(1,1-dioxidotetrahydrothien-3-yl)amino]-3-nitrophenyl}sulfonyl)-2-(1H-indol-4-yloxy)benzamide]",577.7
6,"CC1(C)CCC(CN2CCN(c3ccc(C(=O)NS(=O)(=O)c4ccc(NCC5CCS(=O)(=O)CC5)c([N+](=O)[O-])c4)c(Oc4cccc5[nH]ccc45)c3)CC2)=C(c2ccc(Cl)cc2)C1 [EXAMPLE 301, 4-(4-{[2-(4-chlorophenyl)-4,4-dimethylcyclohex-1-en-1-yl]methyl}piperazin-1-yl)-N-[(4-{[(1,1-dioxidotetrahydro-2H-thiopyran-4-yl)methyl]amino}-3-nitrophenyl)sulfonyl]-2-(1H-indol-4-yloxy)benzamide]",>2268.0
7,"CC1(C)CCC(CN2CCN(c3ccc(C(=O)NS(=O)(=O)c4ccc(NCC(F)F)c([N+](=O)[O-])c4)c(Oc4ccc5[nH]ccc5c4)c3)CC2)=C(c2ccc(Cl)cc2)C1 [EXAMPLE 302, 4-(4-{[2-(4-chlorophenyl)-4,4-dimethylcyclohex-1-en-1-yl]methyl}piperazin-1-yl)-N-({4-[(2,2-difluoroethyl)amino]-3-nitrophenyl}sulfonyl)-2-(1H-indol-5-yloxy)benzamide]",>1309.5
8,"CC1(C)CCC(CN2CCN(c3ccc(C(=O)NS(=O)(=O)c4ccc(NCC5CCOCC5)c(S(=O)(=O)C(F)(F)F)c4)c(Oc4cccc5[nH]ccc45)c3)CC2)=C(c2ccc(Cl)cc2)C1 [EXAMPLE 303, 4-(4-{[2-(4-chlorophenyl)-4,4-dimethylcyclohex-1-en-1-yl]methyl}piperazin-1-yl)-2-(1H-indol-4-yloxy)-N-({4-[(tetrahydro-2H-pyran-4-ylmethyl)amino]-3-[(trifluoromethyl)sulfonyl]phenyl}sulfonyl)benzamide]",>445.9
9,"CC1(C)CCC(CN2CCN(c3ccc(C(=O)NS(=O)(=O)c4ccc(NCC5CCOCC5)c(S(=O)(=O)C(F)(F)F)c4)c(Oc4ccc5[nH]ccc5c4)c3)CC2)=C(c2ccc(Cl)cc2)C1 [EXAMPLE 304, 4-(4-{[2-(4-chlorophenyl)-4,4-dimethylcyclohex-1-en-1-yl]methyl}piperazin-1-yl)-2-(1H-indol-5-yloxy)-N-({4-[(tetrahydro-2H-pyran-4-ylmethyl)amino]-3-[(trifluoromethyl)sulfonyl]phenyl}sulfonyl)benzamide]",>973.5
10,"CC1(C)CCC(CN2CCN(c3ccc(C(=O)NS(=O)(=O)c4ccc(NC5CCC(F)(F)CC5)c([N+](=O)[O-])c4)c(Oc4ccc5[nH]ccc5c4)c3)CC2)=C(c2ccc(Cl)cc2)C1 [EXAMPLE 305, 4-(4-{[2-(4-chlorophenyl)-4,4-dimethylcyclohex-1-en-1-yl]methyl}piperazin-1-yl)-N-({4-[(4,4-difluorocyclohexyl)amino]-3-nitrophenyl}sulfonyl)-2-(1H-indol-5-yloxy)benzamide]",>179.2
11,"CC1(C)CCC(CN2CCN(c3ccc(C(=O)NS(=O)(=O)c4ccc(OCC5(F)CCOCC5)c([N+](=O)[O-])c4)c(Oc4cccc5[nH]ccc45)c3)CC2)=C(c2ccc(Cl)cc2)C1 [EXAMPLE 306, 4-(4-{[2-(4-chlorophenyl)-4,4-dimethylcyclohex-1-en-1-yl]methyl}piperazin-1-yl)-N-({4-[(4-fluorotetrahydro-2H-pyran-4-yl)methoxy]-3-nitrophenyl}sulfonyl)-2-(1H-indol-4-yloxy)benzamide]",622
12,"CC(C)n1cc(CN2CCN(c3ccc(C(=O)NS(=O)(=O)c4ccc(NCC5CCOCC5)c([N+](=O)[O-])c4)c(Oc4ccc5[nH]ccc5c4)c3)CC2)c(-c2ccc(Cl)cc2)cc1=O [EXAMPLE 307, 4-(4-{[4-(4-chlorophenyl)-1-isopropyl-6-oxo-1,6-dihydropyridin-3-yl]methyl}piperazin-1-yl)-2-(1H-indol-5-yloxy)-N-({3-nitro-4-[(tetrahydro-2H-pyran-4-ylmethyl)amino]phenyl}sulfonyl)benzamide]",>177.1
13,"CC1(C)CCC(CN2CCN(c3ccc(C(=O)NS(=O)(=O)c4ccc(C(=O)NCC5CCOCC5)cc4)c(Oc4ccc5[nH]ccc5c4)c3)CC2)=C(c2ccc(Cl)cc2)C1 [EXAMPLE 308, 4-(4-{[2-(4-chlorophenyl)-4,4-dimethylcyclohex-1-en-1-yl]methyl}piperazin-1-yl)-2-(1H-indol-5-yloxy)-N-[(4-{[(tetrahydro-2H-pyran-4-ylmethyl)amino]carbonyl}phenyl)sulfonyl]benzamide]",>11.5
14,"COCCNc1ccc(S(=O)(=O)NC(=O)c2ccc(N3CCN(CC4=C(c5ccc(Cl)cc5)CC(C)(C)CC4)CC3)cc2Oc2cccc3[nH]ccc23)cc1S(=O)(=O)C(F)(F)F [EXAMPLE 309, 4-(4-{[2-(4-chlorophenyl)-4,4-dimethylcyclohex-1-en-1-yl]methyl}piperazin-1-yl)-2-(1H-indol-4-yloxy)-N-({4-[(2-methoxyethyl)amino]-3-[(trifluoromethyl)sulfonyl]phenyl}sulfonyl)benzamide]",>149.4
15,"CC1(C)CCC(CN2CCN(c3ccc(C(=O)NS(=O)(=O)c4ccc(NC[C@H]5CC[C@H](O)CC5)c([N+](=O)[O-])c4)c(Oc4ccc5[nH]ccc5c4)c3)CC2)=C(c2ccc(Cl)cc2)C1 [EXAMPLE 310, Trans-4-(4-{[2-(4-chlorophenyl)-4,4-dimethylcyclohex-1-en-1-yl]methyl}piperazin-1-yl)-N-[(4-{[(4-hydroxycyclohexyl)methyl]amino}-3-nitrophenyl)sulfonyl]-2-(1H-indol-5-yloxy)benzamide]",>13469.4
16,"CO[C@H]1CC[C@H](CNc2ccc(S(=O)(=O)NC(=O)c3ccc(N4CCN(CC5=C(c6ccc(Cl)cc6)CC(C)(C)CC5)CC4)cc3Oc3ccc4[nH]ccc4c3)cc2[N+](=O)[O-])CC1 [EXAMPLE 311, Trans-4-(4-{[2-(4-chlorophenyl)-4,4-dimethylcyclohex-1-en-1-yl]methyl}piperazin-1-yl)-2-(1H-indol-5-yloxy)-N-[(4-{[(4-methoxycyclohexyl)methyl]amino}-3-nitrophenyl)sulfonyl]benzamide]",>2538.5
17,"CC1(C)CCC(CN2CCN(c3ccc(C(=O)NS(=O)(=O)c4ccc(NC[C@H]5CC[C@@H](O)CC5)c([N+](=O)[O-])c4)c(Oc4ccc5[nH]ccc5c4)c3)CC2)=C(c2ccc(Cl)cc2)C1 [EXAMPLE 312, Cis-4-(4-{[2-(4-chlorophenyl)-4,4-dimethylcyclohex-1-en-1-yl]methyl}piperazin-1-yl)-N-[(4-{[(4-hydroxycyclohexyl)methyl]amino}-3-nitrophenyl)sulfonyl]-2-(1H-indol-5-yloxy)benzamide]",>1941.2
18,"CO[C@H]1CC[C@@H](CNc2ccc(S(=O)(=O)NC(=O)c3ccc(N4CCN(CC5=C(c6ccc(Cl)cc6)CC(C)(C)CC5)CC4)cc3Oc3ccc4[nH]ccc4c3)cc2[N+](=O)[O-])CC1 [EXAMPLE 313, Cis-4-(4-{[2-(4-chlorophenyl)-4,4-dimethylcyclohex-1-en-1-yl]methyl}piperazin-1-yl)-2-(1H-indol-5-yloxy)-N-[(4-{[(4-methoxycyclohexyl)methyl]amino}-3-nitrophenyl)sulfonyl]benzamide]",1500
19,"CC1(C)CCC(CN2CCN(c3ccc(C(=O)NS(=O)(=O)c4ccc(OCCC5CCOCC5)c([N+](=O)[O-])c4)c(Oc4cccc5[nH]ccc45)c3)CC2)=C(c2ccc(Cl)cc2)C1 [EXAMPLE 314, 4-(4-{[2-(4-chlorophenyl)-4,4-dimethylcyclohex-1-en-1-yl]methyl}piperazin-1-yl)-2-(1H-indol-4-yloxy)-N-{[3-nitro-4-(2-tetrahydro-2H-pyran-4-ylethoxy)phenyl]sulfonyl}benzamide]",>215.3
